Assay results: PMC8867174, “S-Nitrosation of Arabidopsis thaliana Protein Tyrosine Phosphatase 1 Prevents Its Irreversible Oxidation by Hydrogen Peroxide” (Frontiers in Plant Science, 2022)

How the values were obtained:
[1] = biological target: T1, His-AtPTP1 (Arabidopsis thaliana Protein Tyrosine Phosphatase 1) (Arabidopsis thaliana, UniProt O82656); assay: pNPP hydrolysis after overnight pre-treatment, […] nm; format: biochemical; settings: covalent (NO donor, S-nitrosation); 250 uM to 1 mM SNAP overnight 25 C, removed by gel filtration; assay 1 mM pNPP, pH 6.3, 25 C
T1 construct: gene PTP1
T1 sequence (O82656 1-340): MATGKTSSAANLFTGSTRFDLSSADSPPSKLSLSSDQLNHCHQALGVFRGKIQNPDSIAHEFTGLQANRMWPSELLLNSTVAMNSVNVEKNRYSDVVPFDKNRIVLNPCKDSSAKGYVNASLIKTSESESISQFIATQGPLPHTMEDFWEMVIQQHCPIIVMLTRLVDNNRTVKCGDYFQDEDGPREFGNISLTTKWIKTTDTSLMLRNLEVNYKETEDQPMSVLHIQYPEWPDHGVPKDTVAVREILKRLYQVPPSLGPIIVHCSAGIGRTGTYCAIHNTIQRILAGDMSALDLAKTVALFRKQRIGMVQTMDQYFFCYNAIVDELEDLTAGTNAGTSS

[2] = biological target: T1, His-AtPTP1 (Arabidopsis thaliana Protein Tyrosine Phosphatase 1); assay: pNPP hydrolysis after overnight pre-treatment, […] nm; biotin switch LC-MS/MS; format: biochemical; settings: covalent (S-nitrosation of catalytic C265, reversible by DTT); 100 or 500 uM GSNO overnight 25 C, removed by gel filtration; assay 1 mM pNPP, pH 6.3, 25 C, no DTT

| Compound | relative activity [1] | relative activity [2] |
| --- | --- | --- |
| CC(=O)NC(C(=O)O)C(C)(C)SN=O (centres unmarked) [S-nitroso-N-acetylpenicillamine] | Treatment of His-AtPTP1 with SNAP also led to a significant decrease in its activity |  |
| N[C@@H](CCC(=O)N[C@@H](CSN=O)C(=O)NCC(=O)O)C(=O)O [S-nitrosoglutathione] |  | GSNO inhibited the enzymatic activity of His-AtPTP1 |
